Assay results as given in US6440997B2, “−E-2-(3,4-dichlorocinnamyl)-1-cyclopropylmethylpiperidine, and its antidiarrhoeal use” (Warner-Lambert Company, priority 1997, dated 2002).

Key:
[1] = test system: diarrhoea induced by Salmonella lipopolysaccharide (LPS); assay: Diarrhoea induced by Salmonella lipopolysaccharide (LPS) in mice; settings: for Inhibition of diarrhoea (%): Salmonella LPS; for ED50: Salmonella, in Mus musculus, read-out: Inhibitory activity ED50, Salmonella LPS diarrhoea
[2] = test system: diarrhoea induced by the thermostable toxin of E. coli; assay: Diarrhoea induced by the thermostable toxin of E. coli in mice; assay type: in vivo; settings: Escherichia coli, po, p.o. 1 h before toxin 600 U/mouse p.o., faecal water at 120 min, read-out: Inhibitory activity ED50, E. coli toxin diarrhoea
Description: (§1) b)—diarrhoea induced by the thermostable toxin of E. coli: Nourished male NMRI mice (30-35 g) are weighed and placed in individual cages previously covered with white paper allowing the viewing of the faecal matter voided. The faeces are recovered as soon as voided and are brought together, by periods of 30 min, for 120 min. The faeces thus brought together are weighed before (fresh weight) and after (dry weight) drying at 120° C. for 24 h. The quantity of water present in the faeces is calculated as the difference (fresh weight—dry weight). The thermostable toxin of Escherichia coli (Sigma, E5763) is administered by the oral route at time zero at a dose of 600 U/mouse. The animals of the control batch receive, at time zero, an oral administration of saline. The administration of the test products is carried out by the oral route 1 h before the administration of the toxins.

[3] = test system: diarrhoea induced by the A and B toxins of C. difficile; assay: Diarrhoea induced by the A and B toxins of C. difficile in mice; assay type: in vivo; settings: Clostridioides difficile, po, p.o. 1 h before A and B toxins 6 ng/mouse p.o., faecal water at 120 min, read-out: Inhibitory activity ED50, C. difficile toxins diarrhoea
Description: as §1
c)—diarrhoea induced by the A and B toxins of C. difficile: the experimental protocol, the calculation and the expression of the results are identical to those described above. The A and B toxins of C. difficile are administered by the oral route at time zero at a dose of 6 ng/mouse.

[4] = test system: intestinal secretion induced by cholera toxin; assay: animal or person; assay type: in vivo, rats; settings: for ED50: Rattus norvegicus, read-out: Inhibition of intestinal secretion induced by cholera toxin: ED50
[5] = Toxicity study in mice by the oral route; assay type: in vivo
Description: In animals, the toxicity study was carried out in mice by the oral route. No mortality was noted up to the strongest dose studied, namely 300 mg/kg. No toxic symptoms were evident at doses lower than 100 mg/kg. Starting from this dose, symptoms were observed such as respiratory depression, trembling, convulsions, a state of prostration or of lethargy which were reversible in a lapse of time of 24 hours after treatment.

[6] = test system: transit; assay: Effect on the transit; assay type: in vivo; settings: oral route, mice
[7] = biological target: sigma receptors (Rattus norvegicus, UniProt Q9R0C9); assay: Affinity for sigma receptors: displacement of (+)[3H]-SKF 10,047 from rat brain membrane preparation; settings: σ affinity: IC50, displacement of (+)[3H]-SKF 10,047, rat brain membrane preparation
[8] = test system: inflammatory diarrhoea caused by PGE2; settings: cited from earlier work

Chain of sigma receptors (Q9R0C9 whole entry): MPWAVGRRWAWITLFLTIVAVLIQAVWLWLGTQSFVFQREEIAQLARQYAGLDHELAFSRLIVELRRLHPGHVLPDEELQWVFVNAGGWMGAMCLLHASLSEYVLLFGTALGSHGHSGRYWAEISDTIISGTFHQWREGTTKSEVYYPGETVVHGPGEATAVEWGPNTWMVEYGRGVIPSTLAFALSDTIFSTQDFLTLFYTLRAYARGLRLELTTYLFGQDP

Q: What does the source list for `C(=C\c1ccccc1)/CC1CCCCN1CC1CC1` (single isomer, unassigned; (-)) [Ex. 2A.3, (−)E-2-cinnamyl-1-cyclopropylmethyl-piperidine]?
A: Inhibition of diarrhoea (%) ([1]; dose 0.00003 mg/kg p.o., mice, 3e-05 mg/kg): 45%; Inhibition of diarrhoea (%) ([1]; dose 0.0001 mg/kg p.o., mice): 65.8%; Inhibition of diarrhoea (%) ([1]; dose 0.001 mg/kg p.o., mice, 0.001 mg/kg): 36.8%

Q: For `Clc1ccc(/C=C/CC2CCCCN2CC2CC2)cc1Cl` (single isomer, unassigned; (-)) [eutomer (I), (−)E-2-(3,4-dichlorocinnamyl)-1-cyclopropylmethylpiperidine], which ED50 [2] is on record?
A: 0.019 mg/kg

Q: And the ED50 [3]?
A: < 0.001 mg/kg

Q: What about the ED50 [4] of the same compound?
A: 0.038 mg/kg

Q: And the “times more active than the racemate” value ([4]; rat, in vivo, po)?
A: ~50 times

Q: What about the “Dose up to which no mortality was noted (strongest dose studied)” value [5] of the same compound?
A: ≥ 300 mg/kg

Q: And the “Dose from which toxic symptoms were observed (none at lower doses)” value ([5]; respiratory depression, trembling, convulsions, prostration or lethargy, reversible in 24 hours)?
A: ≥ 100 mg/kg

Q: And the “Action on the transit” value [6]?
A: without acting on the transit

Q: What about the ED50 [1] of the same compound?
A: 0.0056 mg/kg

Q: What about the “Inhibition of diarrhoea (%)” value ([1]; dose 0.003 mg/kg p.o., mice, listed as compound of the invention, 0.003 mg/kg) of the same compound?
A: 46.1%

Q: What about the “Inhibition of diarrhoea (%)” value ([1]; dose 0.01 mg/kg p.o., mice) of the same compound?
A: 59.7%

Q: And the “Inhibition of diarrhoea (%)” value ([1]; dose 0.03 mg/kg p.o., mice)?
A: 59.5%

Q: What about the “Inhibition of diarrhoea (%)” value ([1]; dose 0.1 mg/kg p.o., mice) of the same compound?
A: 69.5%

Q: And the “times more active than acetorphan” value ([1]; oral route, mice, diarrhoea caused by LPS)?
A: more than 6000 times

Q: What about the IC50 [7] of the same compound?
A: 17.9 nM

Q: With `CCC(C/C=C/c1ccccc1)(c1ccccc1)N(C)CC1CC1` (single isomer, unassigned; (+)) [igmesine, (+)-N-cyclopropylmethyl-N-methyldiphenyl-1,4-ethyl-1-buten-3-yl-1-amine] as the compound, how does the ED50 [2] read?
A: 1.72 mg/kg

Q: And the ED50 [3]?
A: 1.45 mg/kg

Q: What about the “Delay of the appearance of the diarrhoea” value ([8]; 30 mg/kg i.p., co-administered with PGE2, mice) of the same compound?
A: approximately 15 min

Q: What about the “Inhibitory effect on PGE2 diarrhoea by the oral route” value ([8]; 60 mg/kg oral route, mice) of the same compound?
A: zero

Q: And the ED50 [1]?
A: 0.42 mg/kg

Q: For `Clc1ccc(/C=C/CC2CCCCN2CC2CC2)cc1Cl` (single isomer, unassigned; (+)) [(+)E-2-(3,4-dichlorocinnamyl)-1-cyclopropylmethylpiperidine], which IC50 [7] is on record?
A: 21.8 nM

Q: Which results are given for `Clc1ccc(C=CCC2CCCCN2CC2CC2)cc1Cl` (racemic) [(+/−) parent racemate, racemic E-2-(3,4-dichlorocinnamyl)-1-cyclopropylmethylpiperidine]?
A: ED50 [2]: 0.077 mg/kg; ED50 [3]: 0.058 mg/kg; ED50 [4]: 1.9 mg/kg; ED50 [1]: 0.038 mg/kg; IC50 [7]: 44.1 nM

Q: Which results are given for `C(=C\c1ccccc1)/CC1CCCN1CC1CC1` (single isomer, unassigned; (-)) [Ex. 1.3, (−)E-2-cinnamyl-1-cyclopropylmethylpyrrolidine]?
A: ED50 [1]: 0.002 mg/kg; Inhibition of diarrhoea (%) ([1]; dose 0.003 mg/kg p.o., mice, 0.003 mg/kg): 63.8%; Inhibition of diarrhoea (%) ([1]; dose 0.01 mg/kg p.o., mice): 78.8%; Inhibition of diarrhoea (%) ([1]; dose 0.03 mg/kg p.o., mice, 0.03 mg/kg): 46.7%

Q: With `CC(=O)SCC(Cc1ccccc1)C(=O)NCC(=O)OCc1ccccc1` (stereo not drawn) [acetorphan] as the compound, how does the ED50 [1] read?
A: 34 mg/kg

Q: For `CN(C)C(=O)C(CCN1CCC(O)(c2ccc(Cl)cc2)CC1)(c1ccccc1)c1ccccc1` [loperamide], which ED50 [2] is on record?
A: 3.92 mg/kg

Q: And the ED50 [3]?
A: 4.27 mg/kg

Q: And the ED50 [1]?
A: 0.37 mg/kg
